Converted amounts (≈) assume the structure as drawn.
Assays:
[1] = system: Mycobacterium tuberculosis; experiment: Antimicrobial activity against Mycobacterium tuberculosis H37Rv incubated for 10 days by microbroth dilution method; assay type: functional; conditions: 240 h
Pseudomonas aeruginosa [2] = experiment: Antimicrobial activity against Pseudomonas aeruginosa ATCC 43288 incubated for 18 to 24 hrs by microbroth dilution method; assay type: functional
[3] = system: Yersinia pseudotuberculosis; experiment: Antimicrobial activity against Yersinia pseudotuberculosis ATCC 911 incubated for 18 to 24 hrs by microbroth dilution method; assay type: functional
Staphylococcus aureus [4] = experiment: Antimicrobial activity against Staphylococcus aureus ATCC 25923 incubated for 18 to 24 hrs by microbroth dilution method; assay type: functional
Enterococcus faecalis = experiment: Antimicrobial activity against Enterococcus faecalis ATCC 29212 incubated for 18 to 24 hrs by microbroth dilution method; assay type: functional
Bacillus cereus = experiment: Antimicrobial activity against Bacillus cereus 709 Roma incubated for 18 to 24 hrs by microbroth dilution method; assay type: functional
[5] = system: Mycolicibacterium smegmatis; experiment: Antimicrobial activity against Mycobacterium smegmatis ATCC 607 incubated for 48 to 72 hrs by microbroth dilution method; assay type: functional
Staphylococcus aureus [6] = experiment: Antimicrobial activity against methicillin-susceptible Staphylococcus aureus ATCC 29213 incubated for 16 hrs by CLSI method; assay type: functional; conditions: ATCC 29213, 16 h
Staphylococcus aureus [7] = experiment: Antimicrobial activity against healthcare-acquired methicillin-resistant Staphylococcus aureus NRS70 incubated for 16 hrs by CLSI method; assay type: functional; conditions: NRS70, 16 h
Staphylococcus aureus [8] = experiment: Antimicrobial activity against methicillin-resistant Staphylococcus aureus ATCC 25923 by microdilution method; assay type: functional
Escherichia coli [9] = experiment: Antimicrobial activity against Escherichia coli ATCC […] by microdilution method; assay type: functional
Escherichia coli [10] = experiment: Antimicrobial activity against multidrug resistance Escherichia coli ATCC 35218 by microdilution method; assay type: functional
Staphylococcus aureus [11] = experiment: Antimicrobial activity against Staphylococcus aureus ATCC 29213 by microdilution method; assay type: functional
Aspergillus clavatus = experiment: Antifungal activity against Aspergillus clavatus after overnight incubation by agar well diffusion method; assay type: functional
Candida albicans = experiment: Antifungal activity against Candida albicans after overnight incubation by agar well diffusion method; assay type: functional
PC-3 = experiment: Growth inhibition of human PC3 cells by MTT assay; assay type: functional, cell-based
Helicobacter pylori [12] = experiment: Antimicrobial activity against Helicobacter pylori clinical isolate 1 after 7 days by two-fold agar dilution method; assay type: functional; conditions: clinical isolate 1, 168 h
Helicobacter pylori [13] = experiment: Antimicrobial activity against Helicobacter pylori clinical isolate 2 after 7 days by two-fold agar dilution method; assay type: functional; conditions: clinical isolate 2, 168 h
Pseudomonas aeruginosa [14] = experiment: Antimicrobial activity against Pseudomonas aeruginosa ATCC 27853 incubated for 18 to 24 hrs by disk diffusion method; assay type: functional
Escherichia coli [15] = experiment: Antimicrobial activity against Escherichia coli ATCC 25922 incubated for 18 to 24 hrs by disk diffusion method; assay type: functional
Staphylococcus aureus [16] = experiment: Antimicrobial activity against Staphylococcus aureus ATCC 25923 incubated for 18 to 24 hrs by disk diffusion method; assay type: functional
Bacillus subtilis = experiment: Antimicrobial activity against Bacillus subtilis 10B incubated for 18 to 24 hrs by disk diffusion method; assay type: functional

## C[C@H]1COc2c(-c3cc4cc(Br)ccc4oc3=O)c(F)cc3c(=O)c(C(=O)O)cn1c23
[1]
  MIC: 12.5 µg/mL (≈ 25.7 µM)

## CCn1cc(C(=O)O)c(=O)c2cc(F)c(N3CCN(Cn4nc(CN5CCN(c6ccc([N+](=O)[O-])cc6)CC5)n(-c5ccc(F)cc5)c4=O)CC3)cc21
Pseudomonas aeruginosa [2]
  MIC: 0.24 µg/mL (≈ 0.329 µM)
[3]
  MIC: 0.12 µg/mL (≈ 0.164 µM)
Staphylococcus aureus [4]
  MIC: 0.48 µg/mL (≈ 0.658 µM)
Enterococcus faecalis
  MIC: 0.122 µg/mL (≈ 0.167 µM)
Bacillus cereus
  MIC: 0.12 µg/mL (≈ 0.164 µM)
[5]
  MIC: 0.244 µg/mL (≈ 0.334 µM)

## COc1c(N2CCCCC2)c(F)cc2c(=O)c(C(=O)Nc3nccs3)cn(C3CC3)c12
Staphylococcus aureus [6]
  MIC90: > 201 µg/mL
Staphylococcus aureus [7]
  MIC90: > 201 µg/mL

## O=C(O)c1cn(C2CC2)c2c(cc(F)c3nn(CN(N4CCOCC4)N4CCOCC4)c(=O)n32)c1=O
Staphylococcus aureus [8]
  MIC: ≤ 2 µg/mL
Escherichia coli [9]
  MIC: ≤ 0.25 µg/mL
Escherichia coli [10]
  MIC: ≤ 2 µg/mL
Staphylococcus aureus [11]
  MIC: ≤ 0.25 µg/mL

## CCN(CC)N(Cn1nc2c(F)cc3c(=O)c(C(=O)O)cn(C4CC4)c3n2c1=O)N(CC)CC
Staphylococcus aureus [8]
  MIC: ≤ 32 µg/mL
Escherichia coli [9]
  MIC: ≤ 16 µg/mL
Escherichia coli [10]
  MIC: ≤ 32 µg/mL
Staphylococcus aureus [11]
  MIC: ≤ 8 µg/mL

## CCn1cc(C(=O)O)c(=O)c2cc(F)c(N3CCN(Cn4nc(CN5CCN(c6ccc([N+](=O)[O-])cc6)CC5)n(Cc5ccccc5)c4=S)CC3)cc21
Pseudomonas aeruginosa [2]
  MIC: 0.06 to 0.48 µg/mL (≈ 0.0809 to 0.647 µM)
Staphylococcus aureus [4]
  MIC: 0.12 to 0.24 µg/mL (≈ 0.162 to 0.324 µM)
Enterococcus faecalis
  MIC: 0.122 to 0.488 µg/mL (≈ 0.164 to 0.658 µM)
Bacillus cereus
  MIC: 0.12 to 0.48 µg/mL (≈ 0.162 to 0.647 µM)
[5]
  MIC: 0.244 µg/mL (≈ 0.329 µM)

## COc1c(N2CCN(C)CC2)c(F)cc2c(=O)c(C(=O)N/N=C\c3cccc(N(C)C)c3)cn(C3CC3)c12
Aspergillus clavatus
  inhibition zone (IZ): 10 mm
Candida albicans
  inhibition zone (IZ): 8 mm

## COc1cc(/C=N\NC(=O)c2cn(C3CC3)c3c(OC)c(N4CCN(C)CC4)c(F)cc3c2=O)ccc1O
PC-3
  IC50: 14.8 µg/mL (≈ 28.3 µM)
Aspergillus clavatus
  inhibition zone (IZ): 12 mm
Candida albicans
  inhibition zone (IZ): 10 mm

## CN(C)N(Cn1nc2c(F)cc3c(=O)c(C(=O)O)cn(C4CC4)c3n2c1=O)N(C)C
Staphylococcus aureus [8]
  MIC: ≤ 8 µg/mL
Escherichia coli [9]
  MIC: ≤ 1 µg/mL
Escherichia coli [10]
  MIC: ≤ 4 µg/mL
Staphylococcus aureus [11]
  MIC: ≤ 2 µg/mL

## O=C(O)c1cn(C2CC2)c2c(cc(F)c3nn(CN(N4CCCC4)N4CCCC4)c(=O)n32)c1=O
Helicobacter pylori [12]
  MIC: 2.5 µg/mL (≈ 5.3 µM)
Helicobacter pylori [13]
  MIC: 0.6 µg/mL (≈ 1.27 µM)

## COc1c(N2CCNCC2)c(F)cc2c(=O)c(C(=O)N3CCSC3)cn(C3CC3)c12
Staphylococcus aureus [6]
  MIC90: 0.39 µg/mL (≈ 0.902 µM)
Staphylococcus aureus [7]
  MIC90: 0.62 µg/mL (≈ 1.43 µM)

## Cc1ccc(Nc2c(F)cc3c(=O)c(C(=O)O)cn(C4CC4)c3c2N)cc1
Helicobacter pylori [12]
  MIC: 5 µg/mL (≈ 13.6 µM)
Helicobacter pylori [13]
  MIC: 2.5 µg/mL (≈ 6.8 µM)

## COc1c(N2CCN(C)CC2)c(F)cc2c(=O)c(C(=O)N/N=C\c3ccc(O)cc3)cn(C3CC3)c12
PC-3
  IC50: 14.4 µg/mL (≈ 29.2 µM)
Aspergillus clavatus
  inhibition zone (IZ): 12 mm
Candida albicans
  inhibition zone (IZ): 9 mm

## Nc1c(Nc2ccc(Cl)cc2)c(F)cc2c(=O)c(C(=O)O)cn(C3CC3)c12
Helicobacter pylori [12]
  MIC: 5 µg/mL (≈ 12.9 µM)
Helicobacter pylori [13]
  MIC: 2.5 µg/mL (≈ 6.45 µM)

## O=C(O)c1cn(C2CC2)c2c(cc(F)c3c2nnn3-c2ccc(Cl)cc2)c1=O
Helicobacter pylori [12]
  MIC: 5 µg/mL (≈ 12.5 µM)
Helicobacter pylori [13]
  MIC: 2.5 µg/mL (≈ 6.27 µM)

## COc1ccc(Nc2c(F)cc3c(=O)c(C(=O)O)cn(C4CC4)c3c2N)cc1
Helicobacter pylori [12]
  MIC: 2.5 µg/mL (≈ 6.52 µM)
Helicobacter pylori [13]
  MIC: 5 µg/mL (≈ 13 µM)

## COc1c(N2CCCC2)c(F)cc2c(=O)c(C(=O)Nc3nccs3)cn(C3CC3)c12
Staphylococcus aureus [6]
  MIC90: > 201 µg/mL
Staphylococcus aureus [7]
  MIC90: > 201 µg/mL

## COc1ccc(OC)c(/C=N\NC(=O)c2cn(C3CC3)c3c(OC)c(N4CCN(C)CC4)c(F)cc3c2=O)c1
PC-3
  IC50: 3 µg/mL (≈ 5.58 µM)
Aspergillus clavatus
  inhibition zone (IZ): 8 mm
Candida albicans
  inhibition zone (IZ): 10 mm

## C[C@H]1COc2c(-c3cc4ccccc4oc3=O)c(F)cc3c(=O)c(C(=O)O)cn1c23
[1]
  MIC: 12.5 µg/mL (≈ 30.7 µM)

## CCn1cc(C(=O)O)c(=O)c2cc(F)c(-c3cc4ccccc4oc3=O)cc21
[1]
  MIC: 12.5 µg/mL (≈ 33 µM)

## CC1CNCCN1N(Cn1nc2c(F)cc3c(=O)c(C(=O)O)cn(C4CC4)c3n2c1=O)N1CCNCC1C (stereo unspecified)
Staphylococcus aureus [8]
  MIC: ≤ 1 µg/mL
Escherichia coli [9]
  MIC: ≤ 0.25 µg/mL
Escherichia coli [10]
  MIC: ≤ 2 µg/mL
Staphylococcus aureus [11]
  MIC: ≤ 0.5 µg/mL

## CCn1cc(C(=O)O)c(=O)c2cc(F)c(NNc3c[nH]c(=O)[nH]c3=O)c(F)c21
Pseudomonas aeruginosa [14]
  MIC: > 500 µg/mL
Escherichia coli [15]
  MIC: 170 µg/mL (≈ 432 µM)
Staphylococcus aureus [16]
  MIC: 195 µg/mL (≈ 496 µM)
Bacillus subtilis
  MIC: > 500 µg/mL

## COc1c(N2CCN(C)CC2)c(F)cc2c(=O)c(C(=O)N/N=C\c3ccc([N+](=O)[O-])cc3)cn(C3CC3)c12
PC-3
  IC50: 15 µg/mL (≈ 28.7 µM)
Aspergillus clavatus
  inhibition zone (IZ): 8 mm
Candida albicans
  inhibition zone (IZ): 10 mm

## CCn1cc(C(=O)O)c(=O)c2cc(F)c(NNc3ncccn3)c(F)c21
Pseudomonas aeruginosa [14]
  MIC: > 500 µg/mL
Escherichia coli [15]
  MIC: 120 µg/mL (≈ 332 µM)
Staphylococcus aureus [16]
  MIC: 150 µg/mL (≈ 415 µM)
Bacillus subtilis
  MIC: > 500 µg/mL

## CCn1cc(C(=O)O)c(=O)c2cc(F)c(Nc3n[nH]c(N)n3)cc21
Pseudomonas aeruginosa [14]
  MIC: > 500 µg/mL
Escherichia coli [15]
  MIC: 150 µg/mL (≈ 451 µM)
Staphylococcus aureus [16]
  MIC: > 500 µg/mL
Bacillus subtilis
  MIC: > 500 µg/mL

## CCn1cc(C(=O)O)c(=O)c2cc(F)c(N3CCN(C(C)=O)CC3)cc21 [4-N-ACETYL-1-PIPERAZINYL-NORFLOXACIN]
Pseudomonas aeruginosa [14]
  MIC: > 500 µg/mL
Escherichia coli [15]
  MIC: 0.012 µg/mL (≈ 0.0332 µM)
Staphylococcus aureus [16]
  MIC: 10.7 µg/mL (≈ 29.7 µM)
Bacillus subtilis
  MIC: 0.805 µg/mL (≈ 2.23 µM)

From ChEMBL document CHEMBL4602605, “Fluoroquinolones structural and medicinal developments (2013-2018): Where are we now?” (Bioorg Med Chem, 2019)
